From patent US20260130933A1, “PHARMACEUTICAL COMPOSITION FOR PREVENTION OR TREATMENT OF NEPHROPATHY AND/OR DIABETES MELLITUS, COMPRISING ENAVOGLIFLOZIN” (DAEWOONG PHARMACEUTICAL CO., LTD., priority 2022, published 2026)

Assay: Example 3: phase 3 trial, enavogliflozin 0.3 mg vs dapagliflozin 10 mg once a day for 24 weeks added to metformin and gemigliptin in patients with type 2 diabetes (same endpoints, rescue drug)
Assay type: in vivo, human
Procedure: 1) when Metformin (≥1,000 mg/Day) was Administered at a Constant Dose for at Least 8 Weeks Prior to Pre-Visit (Pre-Screening) • Metformin (≥1,000 mg/day) and gemigliptin (50 mg/day) were co-administered during the 8-week stabilization period. […] 4) when Metformin (≥1,000 mg/Day) and Gemigliptin (50 mg/Day) were Co-Administered at Constant Doses for at Least 8 Weeks Prior to Pre-Visit (Prescreening) • Without a separate stabilization period, Pre-visit (pre-screening) was Visit 1 (screening).
Subjects who met the inclusion/exclusion criteria continued to receive metformin and gemigliptin while receiving a placebo of the clinical trial drug in a single-blind (subject-blinded) state for a 2-week run-in period.
Here, the randomized subjects were stratified according to the administration therapy (co-administration with two or less agents (one or two agents) or three or more agents) of a conventional hypoglycemic agent (before washout of another hypoglycemic agent) within 24 weeks prior to obtaining written informed consent and by an HbA1c value (<8% or ≥8%) at Visit 1 (screening) measured in the central laboratory.
The randomized subjects were administered two tablets of the clinical trial drug corresponding to each administration group once a day, and then visited the institution at weeks 6, 12, 18, and 24 during the 24-week administration period to conduct efficacy and safety assessments. In addition, during the clinical trial period, they were instructed to exercise regularly and control their diet without changing their daily life patterns.
• 1) Change in HbA1c at week 24 after administration of clinical trial drug compared to Visit 2 (randomization)
• 1) Change in HbA1c at each time point of weeks 6, 12, and 18 after administration of clinical trial drug compared to Visit 2 (randomization) • 2) Change in FPG at each time point of weeks 6, 12, 18, and 24 after administration of clinical trial drug compared to Visit 2 (randomization) • 3) Proportion of subjects achieving HbA1c<7% at each time point of weeks 6, 12, 18, and 24 after administration of clinical trial drug • 4) Proportion of subjects achieving HbA1c<6.5% at each time point of weeks 6, 12, 18, and 24 after administration of clinical trial drug • 5) Proportion of subjects achieving therapeutic response (HbA1c change (HbA1c at Visit 2—HbA1c at each evaluation time point)>0.5% or HbA1c<7% at each evaluation time point compared to Visit 2 (randomization)) at each time point of weeks 6, 12, 18, and 24 after administration of clinical trial drug • 6) Proportion of subjects achieving therapeutic response (HbA1c change (HbA1c at Visit 2—HbA1c at each evaluation time point)>0.7% or HbA1c<7% at each evaluation time point compared to Visit 2 (randomization)) at each time point of weeks 6, 12, 18, and 24 after administration of clinical trial drug • 7) Proportion of subjects achieving therapeutic response (HbA1c change (HbA1c at Visit 2—HbA1c at each evaluation time point)>1% or HbA1c<7% at each evaluation time point compared to Visit 2 (randomization)) at each time point of weeks 6, 12, 18, and 24 after administration of clinical trial drug

[1] = week 6, per-protocol set, enavogliflozin 0.3 mg, dapagliflozin 10 mg
[2] = week 12, modified per-protocol set 1, enavogliflozin 0.3 mg, dapagliflozin 10 mg
[3] = week 12, modified per-protocol set 2
[4] = week 12, modified per-protocol set 2, enavogliflozin 0.3 mg, dapagliflozin 10 mg
[5] = week 12, per-protocol set, enavogliflozin 0.3 mg, dapagliflozin 10 mg

CCOc1ccc(Cc2cc([C@@H]3O[C@H](CO)[C@@H](O)[C@H](O)[C@H]3O)ccc2Cl)cc1 [Dapagliflozin, reference compound]
HbA1c, Median [1]: 6.96% | Subjects achieving HbA1c target of <6.5%, (%) [1]: 15.57% | Subjects achieving HbA1c target of <7%, % [1]: 51.64% | body weight, Median [1]: 63.90 kg | Subjects achieving therapeutic glycemic response 1, % (week 6, per-protocol set, response 1 = HbA1c change >0.5% or HbA1c <7%, enavogliflozin 0.3 mg, dapagliflozin 10 mg): 81.97% | Subjects achieving therapeutic glycemic response 2, % (week 6, per-protocol set, response 2 = HbA1c change >0.7% or HbA1c <7%, enavogliflozin 0.3 mg, dapagliflozin 10 mg): 76.23% | Subjects achieving therapeutic glycemic response 3, % (week 6, per-protocol set, response 3 = HbA1c change >1% or HbA1c <7%, enavogliflozin 0.3 mg, dapagliflozin 10 mg): 63.93% | FPG change from baseline, LS mean (SE) (week 12): −24.42(1.50) mg/dL | HDL-C change from baseline, LS mean (SE) (week 12): 2.84(0.60) mg/dL | HOMA-β change from baseline, LS mean (SE) (week 12): 5.23(1.90) | HbA1c change from baseline, LS mean (SE) (week 12): −0.83(0.04) % p | LDL-C change from baseline, LS mean (SE) (week 12): 2.71(1.75) mg/dL | UACR change from baseline, LS mean (SE) (week 12): −11.76(4.47) g/kg | UGCR change from baseline, LS mean (SE) (week 12): 44.84(2.02) mg/mg | adiponectin change from baseline, LS mean (SE) (week 12): 0.70(0.33) μg/mL | body weight change from baseline, LS mean (SE) (week 12): −2.71(0.19) kg | diastolic blood pressure change from baseline, LS mean (SE) (week 12): −2.26(0.66) mmHg | fasting C-peptide change from baseline, LS mean (SE) (week 12): −0.07(0.02) ng/ml | leptin change from baseline, LS mean (SE) (week 12): −1.69(0.47) ng/ml | systolic blood pressure change from baseline, LS mean (SE) (week 12): −5.06(0.85) mmHg | total cholesterol change from baseline, LS mean (SE) (week 12): 5.40(1.98) mg/dL | triglyceride change from baseline, LS mean (SE) (week 12): −12.02(5.12) mg/dL | Change from baseline in HDL-C, ANCOVA LS mean [2]: 2.84 mg/dL | Change from baseline in HDL-C, Mean [2]: 2.65 mg/dL | Change from baseline in HDL-C, Median [2]: 2.00 mg/dL | Change from baseline in LDL-C, ANCOVA LS mean [2]: 2.71 mg/dL | Change from baseline in LDL-C, Mean [2]: 2.45 mg/dL | Change from baseline in LDL-C, Median [2]: 4.00 mg/dL | Change from baseline in total cholesterol, ANCOVA LS mean [2]: 5.40 mg/dL | Change from baseline in total cholesterol, Mean [2]: 4.61 mg/dL | Change from baseline in total cholesterol, Median [2]: 6.00 mg/dL | Change from baseline in triglycerides, ANCOVA LS mean [2]: 12.02 mg/dL | Change from baseline in triglycerides, Mean [2]: -16.03 mg/dL | Change from baseline in triglycerides, Median [2]: -6.00 mg/dL | Fasting HDL-C, Mean [2]: 50.08 mg/dL | Fasting HDL-C, Median [2]: 49.00 mg/dL | Fasting LDL-C, Mean [2]: 79.86 mg/dL | Fasting LDL-C, Median [2]: 72.50 mg/dL | Fasting total cholesterol, Mean [2]: 148.41 mg/dL | Fasting triglycerides, Mean [2]: 116.46 mg/dL | Fasting triglycerides, Median [2]: 104.50 mg/dL | fasting Total cholesterol, Median [2]: 140.50 mg/dL | Change from baseline in diastolic blood pressure, ANCOVA LS mean [3]: −2.26 mmHg | Change from baseline in diastolic blood pressure, Mean [3]: −1.88 mmHg | Change from baseline in diastolic blood pressure, Median [3]: −1.00 mmHg | Diastolic blood pressure, Mean [3]: 71.99 mmHg | Diastolic blood pressure, Median [3]: 72.00 mmHg | Change from baseline in systolic blood pressure, ANCOVA LS mean [4]: −5.06 mmHg | Change from baseline in systolic blood pressure, Mean [4]: −4.43 mmHg | Change from baseline in systolic blood pressure, Median [4]: −4.00 mmHg | Systolic blood pressure, Mean [4]: 119.51 mmHg | Systolic blood pressure, Median [4]: 120.00 mmHg | Adiponectin, Mean (week 12, per-protocol set): 6.97 µg/mL | Adiponectin, Median (week 12, per-protocol set): 6.27 µg/mL | Change from baseline in HOMA-IR, ANCOVA LS mean (week 12, per-protocol set): −1.05 | Change from baseline in HOMA-IR, Mean (week 12, per-protocol set): −1.06 | Change from baseline in HOMA-IR, Median (week 12, per-protocol set): −0.76 | Change from baseline in HOMA-β, ANCOVA LS mean (week 12, per-protocol set): 5.23 | Change from baseline in HOMA-β, Mean (week 12, per-protocol set): 4.70 | Change from baseline in HOMA-β, Median (week 12, per-protocol set): 3.50 | Change from baseline in UACR, ANCOVA LS mean (week 12, per-protocol set): -11.76 g/kg | Change from baseline in UACR, Mean (week 12, per-protocol set): -7.42 g/kg | Change from baseline in UACR, Median (week 12, per-protocol set): 0.20 g/kg | Change from baseline in UGCR, ANCOVA LS mean (week 12, per-protocol set): 44.84 mg/mg | Change from baseline in UGCR, Mean (week 12, per-protocol set): 43.19 mg/mg | Change from baseline in UGCR, Median (week 12, per-protocol set): 41.69 mg/mg | Change from baseline in adiponectin, ANCOVA LS mean (week 12, per-protocol set): 0.70 µg/mL | Change from baseline in adiponectin, Mean (week 12, per-protocol set): 0.63 µg/mL | Change from baseline in adiponectin, Median (week 12, per-protocol set): 0.43 µg/mL | Change from baseline in leptin, ANCOVA LS mean (week 12, per-protocol set): -1.69 ng/mL | Change from baseline in leptin, Mean (week 12, per-protocol set): -1.82 ng/mL | Change from baseline in leptin, Median (week 12, per-protocol set): -0.96 ng/mL | HOMA-IR (insulin resistance), Mean (week 12, per-protocol set): 1.80 | HOMA-IR (insulin resistance), Median (week 12, per-protocol set): 1.55 | HOMA-β (beta-cell function), Mean (week 12, per-protocol set): 45.17 | HOMA-β (beta-cell function), Median (week 12, per-protocol set): 38.20 | Leptin, Mean (week 12, per-protocol set): 9.03 ng/mL | Leptin, Median (week 12, per-protocol set): 7.69 ng/mL | UACR, Mean (week 12, per-protocol set): 27.28 g/kg | UACR, Median (week 12, per-protocol set): 11.80 g/kg | UGCR, Mean (week 12, per-protocol set): 44.72 mg/mg | UGCR, Median (week 12, per-protocol set): 41.80 mg/mg | Body weight, Mean [5]: 64.64 kg | Change from baseline in FPG, ANCOVA LS mean [5]: -24.42 mg/dL | Change from baseline in FPG, Mean [5]: -25.28 mg/dL | Change from baseline in FPG, Median [5]: -20.00 mg/dL | Change from baseline in HbA1c, ANCOVA LS mean [5]: −0.83 % p | Change from baseline in HbA1c, Mean [5]: −0.87 % p | Change from baseline in HbA1c, Median [5]: −0.85 % p | Change from baseline in body weight, ANCOVA LS mean [5]: -2.71 kg | Change from baseline in body weight, Mean [5]: -2.58 kg | Change from baseline in body weight, Median [5]: -2.50 kg | Change from baseline in fasting C-peptide, ANCOVA LS mean [5]: -0.07 ng/mL | Change from baseline in fasting C-peptide, Mean [5]: -0.06 ng/mL | Change from baseline in fasting C-peptide, Median [5]: -0.03 ng/mL | FPG, Mean [5]: 115.24 mg/dL | FPG, Median [5]: 112.00 mg/dL | Fasting C-peptide, Mean [5]: 0.63 ng/mL | Fasting C-peptide, Median [5]: 0.60 ng/mL | HbA1c, Mean [5]: 6.96% | HbA1c, Median [5]: 6.84% | Subjects achieving HbA1c target of <6.5%, (%) [5]: 17.07%
